Source: publication PMC6349357, “Computational and experimental analysis of bioactive peptide linear motifs in the integrin adhesome” (PLoS ONE, 2019)

What was measured:
resting platelets = assay: Platelet aggregation induced by peptide in resting washed platelets (activation); assay type: cell-based, human (healthy volunteers); conditions: for Activation: platelet aggregation in resting platelets after 6 minutes incubation with peptide, pal-peptides 20 μM, tat-peptides 50 μM, optical density, aggregometer, mean, n>=3; for Activation / Activation, 5μM / Activation, 20μM / Activation, donor 14 06 13 / Activation, donor 20 08 13: unit assumed; for Aggregation before TRAP activation, donor h: replicate donor h; for Aggregation before TRAP activation, donor i: replicate donor i; for Aggregation before TRAP activation, donor j: replicate donor j; for Activation, 5μM / Activation, 20μM: S3 Table, n=3; for Activation, 5μM: peptide 5 μM; for Activation, 20μM: peptide 20 μM; for Activation, donor 14 06 13: replicate 14_06_13; for Activation, donor 14 06 13 / Activation, donor 18_06_13 / Activation, donor 20_06_13 / Activation, donor 20 08 13 / Activation, donor 22_08_13_DONOR1 / Activation, donor 22_08_13_DONOR2: SDC4 peptides and controls, 20 μM; for Activation, donor 18_06_13: replicate 18_06_13; for Activation, donor 18_06_13 / Activation, donor 20_06_13: in % (unit assumed); for Activation, donor 20_06_13: replicate 20_06_13; for Activation, donor 20 08 13: replicate 20_08_13; for Activation, donor 22_08_13_DONOR1: replicate 22_08_13_DONOR1; for Activation, donor 22_08_13_DONOR2: replicate 22_08_13_DONOR2
Procedure: (§1) Blood was drawn from healthy volunteers into a syringe containing a final volume of 15% Acid Citrate Dextrose (ACD). The blood/ACD mixture was then aliquoted into 15 ml Cellstar tubes, at volumes of 5ml per tube, and centrifuged at 150 rcf for 10 minutes to obtain platelet rich plasma (PRP). PRP was then transferred to a 50ml tube using a pipette. The pH was then adjusted to 6.5. Prostaglandin (PGE1) was then added with a final concentration of 1μM. The PRP was then centrifuged at 750 rcf. After centrifugation the platelet poor plasma (PPP) was discarded and the pellet was resuspended in buffer A (6 mM dextrose, 130 mM NaCl, 9 mM NaHCO3, 10 mM sodium citrate, 10 mM Tris base, 3 mM KCl, 0.81 mM KH2PO4 and 0.9 mM MgCl26H2O, pH 7.4). A platelet concentration of 3x10^5/μl or 1x10^6/μl was obtained by dilution depending on the experiment in which they were used. Platelets were left to rest for 45 minutes and supplemented with 1.8mM calcium chloride prior to use.
(§2) A platelet concentration of 3x10^5 /μl was used when performing standard aggregations and a concentration of 1x10^6 /μl was used for sample preparation for western blot analysis. The extent of platelet aggregation was measured by quantifying the optical density of the samples using the Bio-Data PAP-8 aggregometer (platelet aggregation profiler, Horsham, PA, USA). A temperature of 37°C was maintained and samples were stirred using magnets spinning at 1100 rpm. 200 μl of washed platelets was added to each aggregation tube. Different volumes of buffer, peptide and TRAP were added to achieve the desired concentrations. Peptide/buffer was added to each well after two minutes. TRAP, with a final concentration depending on the experiment, was added 6 minutes later and data was collected for an additional 7 minutes.

TRAP-activated platelets = assay: Inhibition of TRAP-induced platelet aggregation after pre-incubation with peptide; assay type: cell-based, human (healthy volunteers); conditions: for Aggregation after TRAP activation, donor h: replicate donor h; for Aggregation after TRAP activation, donor i: replicate donor i; for Aggregation after TRAP activation, donor j: replicate donor j; for Aggregation (inhibition effects of syndecan-derived peptides): S2 Table A, n=6; for Inhibition, donor 14_06_13: replicate 14_06_13; for Inhibition, donor 18_06_13: replicate 18_06_13; for Inhibition, donor 20_06_13: replicate 20_06_13; for Inhibition, donor 20_08_13: replicate 20_08_13
Procedure: as §1, §2

[1] = platelet aggregation induced by 4 μM TRAP in platelets pre-incubated with peptide (low value = inhibition), pal-peptides 20 μM, tat-peptides 50 μM, mean, n>=3
[2] = TRAP 4 μM, pal 20 μM, tat 50 μM
[3] = S3 Table, peptide 5 μM, aggregation after TRAP, n=3
[4] = S3 Table, peptide 20 μM, aggregation after TRAP, n=3
[5] = replicate 22_08_13_DONOR1, peptide 20 μM, TRAP 4 μM
[6] = replicate 22_08_13_DONOR2, peptide 20 μM, TRAP 4 μM

Substance: tat-EGERALPSIPKLAN-(NH2) [tat-FAK_1, tat peptide from PTK2/FAK1]
- Activation (resting platelets): 4%
- Aggregation before TRAP activation, donor h (resting platelets; pal 20 μM, tat 50 μM): 4
- Aggregation before TRAP activation, donor i (resting platelets; pal 20 μM, tat 50 μM): 4
- Aggregation before TRAP activation, donor j (resting platelets; pal 20 μM, tat 50 μM): 4
- Platelet aggregation remaining after TRAP (low = inhibition) (TRAP-activated platelets; [1]): 72
- Aggregation after TRAP activation, donor h (TRAP-activated platelets; [2]): 76
- Aggregation after TRAP activation, donor i (TRAP-activated platelets; [2]): 66
- Aggregation after TRAP activation, donor j (TRAP-activated platelets; [2]): 74

Substance: GIESMSQDTEVRSRVVGGS-tat [PTPN1-tat, PTPN1 peptide with C-terminal tat]
- Activation (resting platelets): 3%
- Aggregation before TRAP activation, donor a (resting platelets; replicate donor a, pal 20 μM, tat 50 μM): 3
- Aggregation before TRAP activation, donor b (resting platelets; replicate donor b, pal 20 μM, tat 50 μM): 4
- Aggregation before TRAP activation, donor c (resting platelets; replicate donor c, pal 20 μM, tat 50 μM): 5
- Aggregation before TRAP activation, donor d (resting platelets; replicate donor d, pal 20 μM, tat 50 μM): 4
- Aggregation before TRAP activation, donor e (resting platelets; replicate donor e, pal 20 μM, tat 50 μM): 3
- Platelet aggregation remaining after TRAP (low = inhibition) (TRAP-activated platelets; [1]): 77
- Aggregation after TRAP activation, donor a (TRAP-activated platelets; replicate donor a, TRAP 4 μM, pal 20 μM, tat 50 μM): 73
- Aggregation after TRAP activation, donor b (TRAP-activated platelets; replicate donor b, TRAP 4 μM, pal 20 μM, tat 50 μM): 76
- Aggregation after TRAP activation, donor c (TRAP-activated platelets; replicate donor c, TRAP 4 μM, pal 20 μM, tat 50 μM): 83
- Aggregation after TRAP activation, donor d (TRAP-activated platelets; replicate donor d, TRAP 4 μM, pal 20 μM, tat 50 μM): 75
- Aggregation after TRAP activation, donor e (TRAP-activated platelets; replicate donor e, TRAP 4 μM, pal 20 μM, tat 50 μM): 79

Substance: Pal-RMKKKDEGSYD-LGKKPIYKK [pal-SDC4-JM U SDC4-middle, palmitylated chimeric peptide of SDC4 juxtamembrane and middle regions]
- Activation, 5μM (resting platelets): 2%
- Activation, 20μM (resting platelets): 4%
- Activation, donor 14 06 13 (resting platelets): 0%
- Activation, donor 18_06_13 (resting platelets): 2
- Activation, donor 20_06_13 (resting platelets): 1
- Activation, donor 20 08 13 (resting platelets): 6%
- Activation, donor 22_08_13_DONOR1 (resting platelets): 6
- Activation, donor 22_08_13_DONOR2 (resting platelets): 7
- Aggregation (inhibition effects of syndecan-derived peptides) (TRAP-activated platelets; peptide 20 μM, TRAP 4 μM, mean): 19
- Platelet aggregation remaining after TRAP (low = inhibition) (TRAP-activated platelets; [3]): 61
- Platelet aggregation remaining after TRAP (low = inhibition) (TRAP-activated platelets; [4]): 19
- Inhibition, donor 14_06_13 (TRAP-activated platelets; peptide 20 μM, TRAP 4 μM): 26
- Inhibition, donor 18_06_13 (TRAP-activated platelets; peptide 20 μM, TRAP 4 μM): 9
- Inhibition, donor 20_06_13 (TRAP-activated platelets; peptide 20 μM, TRAP 4 μM): 47
- Inhibition, donor 20_08_13 (TRAP-activated platelets; peptide 20 μM, TRAP 4 μM): 12
- Platelet aggregation remaining after TRAP (low = inhibition) (TRAP-activated platelets; [5]): 8
- Platelet aggregation remaining after TRAP (low = inhibition) (TRAP-activated platelets; [6]): 14

Substance: pal-KVGFFKR-FAKFEEERAR [B15p ITGA2b-JM U ITGB3-middle1, palmitylated chimeric peptide]
- Activation, 5μM (resting platelets): 2%
- Activation, 20μM (resting platelets): 4%
- Platelet aggregation remaining after TRAP (low = inhibition) (TRAP-activated platelets; [3]): 72
- Platelet aggregation remaining after TRAP (low = inhibition) (TRAP-activated platelets; [4]): 71

Substance: tat-KRAPQMDWSKKNELFSNL [tat-NHERF1, tat peptide from NHERF1]
- Activation (resting platelets): 3%
- Aggregation before TRAP activation, donor h (resting platelets; pal 20 μM, tat 50 μM): 4
- Aggregation before TRAP activation, donor i (resting platelets; pal 20 μM, tat 50 μM): 3
- Aggregation before TRAP activation, donor j (resting platelets; pal 20 μM, tat 50 μM): 3
- Platelet aggregation remaining after TRAP (low = inhibition) (TRAP-activated platelets; [1]): 70
- Aggregation after TRAP activation, donor h (TRAP-activated platelets; [2]): 71
- Aggregation after TRAP activation, donor i (TRAP-activated platelets; [2]): 66
- Aggregation after TRAP activation, donor j (TRAP-activated platelets; [2]): 75

Substance: pal-KVGAAKR-RMKKKDEGSYD [B16p ITGA2b-JM U SDC4-JM, palmitylated chimeric peptide]
- Activation, 5μM (resting platelets): 3%
- Activation, 20μM (resting platelets): 0%
- Platelet aggregation remaining after TRAP (low = inhibition) (TRAP-activated platelets; [3]): 72
- Platelet aggregation remaining after TRAP (low = inhibition) (TRAP-activated platelets; [4]): 4

Substance: pal-NNPLYKEA-(NH2) [pal-ITGB3_middle2, N-terminally palmitylated ITGB3 peptide NNPLYKEA]
- Activation (resting platelets): 1%
- Aggregation before TRAP activation, donor h (resting platelets; pal 20 μM, tat 50 μM): 2
- Aggregation before TRAP activation, donor i (resting platelets; pal 20 μM, tat 50 μM): 2
- Aggregation before TRAP activation, donor j (resting platelets; pal 20 μM, tat 50 μM): 1
- Platelet aggregation remaining after TRAP (low = inhibition) (TRAP-activated platelets; [1]): 74
- Aggregation after TRAP activation, donor h (TRAP-activated platelets; [2]): 74
- Aggregation after TRAP activation, donor i (TRAP-activated platelets; [2]): 71
- Aggregation after TRAP activation, donor j (TRAP-activated platelets; [2]): 78

Substance: pal-KVGFFKR-LGKKPIYKK [B18p ITGA2b-JM U SDC4-middle, palmitylated chimeric peptide]
- Activation, 5μM (resting platelets): 61%
- Activation, 20μM (resting platelets): 13%
- Platelet aggregation remaining after TRAP (low = inhibition) (TRAP-activated platelets; [3]): 65
- Platelet aggregation remaining after TRAP (low = inhibition) (TRAP-activated platelets; [4]): 27

Substance: pal-TLELDRLMASLS [B23p TGFB1I1-LD, palmitylated TGFB1I1 LD peptide]
- Activation, 5μM (resting platelets): 2%
- Activation, 20μM (resting platelets): 3%
- Platelet aggregation remaining after TRAP (low = inhibition) (TRAP-activated platelets; [3]): 73
- Platelet aggregation remaining after TRAP (low = inhibition) (TRAP-activated platelets; [4]): 70

Substance: pal-KVGAAKR-LGKKPIYKK [B19p ITGA2b-JM2 U SDC4-middle, palmitylated chimeric peptide]
- Activation, 5μM (resting platelets): 2%
- Activation, 20μM (resting platelets): 3%
- Platelet aggregation remaining after TRAP (low = inhibition) (TRAP-activated platelets; [3]): 66
- Platelet aggregation remaining after TRAP (low = inhibition) (TRAP-activated platelets; [4]): 6

Substance: pal-WEQLLTTIARTINEVENQI [B3p ACTN1-VBS]
- Activation, 5μM (resting platelets): 2%
- Activation, 20μM (resting platelets): 1%
- Platelet aggregation remaining after TRAP (low = inhibition) (TRAP-activated platelets; [3]): 76
- Platelet aggregation remaining after TRAP (low = inhibition) (TRAP-activated platelets; [4]): 73

Substance: pal-KVGFFKR-WEQLLTTIARTINEVENQI [B12p ITGA2b-JM U ACTN1-VBS, palmitylated chimeric peptide]
- Activation, 5μM (resting platelets): 1%
- Activation, 20μM (resting platelets): 7%
- Platelet aggregation remaining after TRAP (low = inhibition) (TRAP-activated platelets; [3]): 74
- Platelet aggregation remaining after TRAP (low = inhibition) (TRAP-activated platelets; [4]): 66

Substance: SSTLSKKRPPPPPPGHKRTLSD-tat-(NH2) [AMAP1-tat, ASAP1/DDEF2 peptide with C-terminal tat]
- Activation (resting platelets): 4%
- Aggregation before TRAP activation, donor h (resting platelets; pal 20 μM, tat 50 μM): 4
- Aggregation before TRAP activation, donor i (resting platelets; pal 20 μM, tat 50 μM): 3
- Aggregation before TRAP activation, donor j (resting platelets; pal 20 μM, tat 50 μM): 5
- Platelet aggregation remaining after TRAP (low = inhibition) (TRAP-activated platelets; [1]): 72
- Aggregation after TRAP activation, donor h (TRAP-activated platelets; [2]): 76
- Aggregation after TRAP activation, donor i (TRAP-activated platelets; [2]): 62
- Aggregation after TRAP activation, donor j (TRAP-activated platelets; [2]): 79

Substance: Pal-RMKKKDEGSYD-APTNEFYA [pal-SDC4-JM U SDC4-tail, palmitylated chimeric peptide of SDC4 juxtamembrane and tail regions]
- Activation, 5μM (resting platelets): 2%
- Activation, 20μM (resting platelets): 2%
- Activation, donor 14 06 13 (resting platelets): 3%
- Activation, donor 18_06_13 (resting platelets): 2
- Activation, donor 20_06_13 (resting platelets): 2
- Activation, donor 20 08 13 (resting platelets): 3%
- Activation, donor 22_08_13_DONOR1 (resting platelets): 1
- Activation, donor 22_08_13_DONOR2 (resting platelets): 2
- Aggregation (inhibition effects of syndecan-derived peptides) (TRAP-activated platelets; peptide 20 μM, TRAP 4 μM, mean): 69
- Platelet aggregation remaining after TRAP (low = inhibition) (TRAP-activated platelets; [3]): 63
- Platelet aggregation remaining after TRAP (low = inhibition) (TRAP-activated platelets; [4]): 69
- Inhibition, donor 14_06_13 (TRAP-activated platelets; peptide 20 μM, TRAP 4 μM): 75
- Inhibition, donor 18_06_13 (TRAP-activated platelets; peptide 20 μM, TRAP 4 μM): 62
- Inhibition, donor 20_06_13 (TRAP-activated platelets; peptide 20 μM, TRAP 4 μM): 81
- Inhibition, donor 20_08_13 (TRAP-activated platelets; peptide 20 μM, TRAP 4 μM): 70
- Platelet aggregation remaining after TRAP (low = inhibition) (TRAP-activated platelets; [5]): 62
- Platelet aggregation remaining after TRAP (low = inhibition) (TRAP-activated platelets; [6]): 68
